Values quoted from earlier work in patent US7488493B2, “Performance aid for pesticide or repellent compositions” (Arkion Life Sciences, LLC, priority 2003, dated 2009).

Tested on: birds

O=C1c2ccccc2C(=O)c2ccccc21 [9,10-anthraquinone]
Lower limit of detection in birds (threshold where birds begin to sense the repellency) (in vivo): 125 ppm
Content in seed at which birds will not feed (treated seed): 0.1 % by weight
